This is an account of results in patent US11873486B2, “Modulating dsRNA editing, sensing, and metabolism to increase tumor immunity and improve the efficacy of cancer immunotherapy and/or modulators of intratumoral interferon” (Dana-Farber Cancer Institute, Inc., priority 2017, dated 2024).

Assay [1] deals with T1, ADA2 (Homo sapiens, UniProt Q9NZK5).
T1 sequence (Q9NZK5 30-511): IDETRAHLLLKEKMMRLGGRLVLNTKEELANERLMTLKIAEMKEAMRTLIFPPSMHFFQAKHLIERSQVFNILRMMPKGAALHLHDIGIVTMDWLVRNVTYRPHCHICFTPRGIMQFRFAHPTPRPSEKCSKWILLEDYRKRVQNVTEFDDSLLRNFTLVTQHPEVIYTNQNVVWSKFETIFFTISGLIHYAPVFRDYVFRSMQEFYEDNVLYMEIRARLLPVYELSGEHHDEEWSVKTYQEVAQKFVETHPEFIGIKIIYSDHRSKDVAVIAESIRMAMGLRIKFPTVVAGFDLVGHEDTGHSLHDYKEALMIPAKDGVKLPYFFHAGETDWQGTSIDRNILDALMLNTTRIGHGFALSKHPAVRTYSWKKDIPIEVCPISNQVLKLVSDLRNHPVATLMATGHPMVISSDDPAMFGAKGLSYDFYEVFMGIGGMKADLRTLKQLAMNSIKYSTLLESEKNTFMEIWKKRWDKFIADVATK
As to conditions: cited from earlier work.

The test system of assay [2] is interferon stimulated genes in ADAR-dependent cell lines. Nature of the assay: Immunoblot of interferon stimulated gene expression after inhibitor treatment. It is filed as cell-based, human. The settings on record: for ISG expression / interferon signaling: antioxidant treatment of ADAR-dependent cell lines. The protocol:
(§1) For drug treatment assays, cells were plated at a density of 3000 cells per well in a 96-well assay plate. The following day, cells were treated with ruxolitinib (INCB018424) from Selleck Chemicals; MRT67307 hydrocloride (SML0702) from Sigma-Aldrich; human interferon-alphal (#8927) from Cell Signaling; recombinant human IFN-beta 1a (mammalian) protein (114151) and recombinant human IFN-gamma protein (285-IF-100) from R&D Systems. For preincubation drug treatment experiments, cells were plated in the presence of ruxolitinib and were treated with interferon-0 and ruxolitinib the following day. Control wells were treated with dimethylsulfoxide (DMSO). Cell viability was assayed 3 or 6 days after drug treatment with CellTiter-Glo® Luminescent Cell Viability Assay kit (Promega). Viability was normalized to DMSO controls.
Cells were lysed in RIPA lysis buffer (Thermo Scientific) supplemented with 1× protease and phosphatase inhibitor cocktails (Roche). Protein extracts were analyzed by standard immunoblotting with the following antibodies: ADAR1 (D7E2M), MDA5 (D74E4), RIG-I (D14G6), ISG15 (22D2), USP18 (D4E7), PKR (#3072), STING (D2P2F), cGAS (D1D3G), IRF9 (D2T8M), PD-L1 (E1L3N), P-IRF3 Ser396 (4D4G), IRF3 (D6I4C), P-TBK1 Ser172 (D52C2), TBK1 (D1B4), P-EIF2α Ser51 (#9721), and EIF2α (D7D3) from Cell Signaling; P-PKR Thr446 (ab32036) from Abcam; R-actin C4 (sc-47778) from Santa Cruz. All antibodies were used at a dilution of 1:1000 except R-actin which was used at 1:4000). The following secondary antibodies were used at 1:5000 dilution: Goat anti-Rabbit IRDye 800CW (LI-COR, 926-32211) and Goat anti-Mouse IRDye […] (LI-COR, 926-68020). All immunoblots were imaged using the LI-COR digital imaging system and ImageJ.

For assay [3], the system named is ADAR1 knockout A549 cells. Nature of the assay: Viability of ADAR1 knockout A549 cells with interferon or drug treatment. It is filed as cell-based, human. The protocol: as §1
for interferon treatment assays, cells were plated at a low density of 3000 cells per well in a 96-well assay plate. The following day, cells were treated with human interferon-alpha 1 (Cell Signaling, #8927) or recombinant human IFN-beta 1a (mammalian) protein (PBL Assay Science, 114151). Control wells were treated with water. Cell viability was assayed 3 or 6 days after drug treatment with CellTiter-Glo© Luminescent Cell Viability Assay kit (Promega). Viability was normalized to controls. Apoptosis was assayed 3 days after interferon treatment with Caspase-Glo®3/7 Assay kit (Promega). Dose curves were obtained using least-squares nonlinear regression on a standard four-parameter logistic model using GraphPad Prism.

The test system of assay [4] is B16 tumors. Nature of the assay: B16 tumor challenge (tumor volume, survival). It is filed as in vivo, mouse. As to conditions: topical, every three days. From the text: The designs of these animal studies and procedures were approved by the Dana Farber Cancer Institute IACUC committee. Dana Farber's specific-pathogen free facility was used for the storage and care of all mice. Seven-week old wild-type female C57BL/6J mice were obtained from Jackson laboratories (Bar Harbor, ME). A colony of B6.129S2-Tcra^tm1Mom/J (Tcra) T cell-deficient mice were bred on site. Mice were aged matched to be 7-12 weeks old at the time of tumor inoculation. For screening, 2.0×10^6 library-transduced B16-Cas9 cells resuspended in Hanks Balanced Salt Solution (Gibco, Thermo Fisher Scientific, Waltham, MA) were mixed 1:1 by volume with Matrigel® (Corning, Corning, NY) and subcutaneously injected into the right flank on day 0. Mice were vaccinated with 1.0×10^6 GM-CSF-secreting B16 (GVAX) cells that had been irradiated with […] on days 1 and 4 to elicit an anti-tumor immune response. Subsequently, mice were treated with 100 μg of rat monoclonal anti-PD1 antibody (clone: 29F.1A12) on days 9 and 12 via intraperitoneal injection. For validation assays, 1.0×10^6 tumor cells were subcutaneously injected into the right flank without matrigel. Tumors were measured every 3 days beginning on day 6 after challenge until time of death. Measurements were taken manually by collecting the longest dimension (length) and the longest perpendicular dimension (width). Tumor volume was estimated with the formula: (L×W^2)/2. CO2 inhalation was used to euthanize mice on the day of sacrifice.
The designs of animal studies and procedures were approved by the Dana Farber Cancer Institute IACUC and the Broad Institute IACUC committees. Specific pathogen-free facilities at the Dana Farber and the Broad Institute were used for the storage and care of all mice. Six-week old wild-type female C57BL/6J mice were obtained from Jackson laboratories, Bar Harbor ME A colony of B6.129S2-Tcra^tm1Mom/J (Tcra) T cell-deficient mice were bred on site at the Dana Farber. […] Tumors were measured every 3 days beginning on day 6 after challenge until time of death. […]

In assay [5] the target is T2, ADA1 (Homo sapiens, UniProt P00813).
T2 sequence (P00813 1-363): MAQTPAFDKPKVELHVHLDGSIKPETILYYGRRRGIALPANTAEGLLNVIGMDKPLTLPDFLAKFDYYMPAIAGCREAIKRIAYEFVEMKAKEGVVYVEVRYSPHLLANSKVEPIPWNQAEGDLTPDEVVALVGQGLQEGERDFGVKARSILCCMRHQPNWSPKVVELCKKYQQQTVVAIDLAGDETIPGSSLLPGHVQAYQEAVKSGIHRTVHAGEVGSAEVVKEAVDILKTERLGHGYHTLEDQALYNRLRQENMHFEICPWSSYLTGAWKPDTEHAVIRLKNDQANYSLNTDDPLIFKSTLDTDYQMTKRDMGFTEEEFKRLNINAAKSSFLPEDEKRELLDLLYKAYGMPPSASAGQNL
As to conditions: cited from earlier work.

In assay [6] the test system is B16 tumor cells. Nature of the assay: In vitro cytokine stimulation and growth inhibition assay. As to conditions: Adar-deficient versus control B16 tumor cells, 72 hours. In kind it is cell-based, mouse. On the procedure: FIG. 9 includes 3 panels, identified as panels A, B, and C, which provide exemplary mechanisms of ADAR-induced sensitivity to checkpoint blockade. […] A certain number of B16 tumor cells (50 k; Adar null or control) were stimulated in vitro with cytokine for 72 hours and the cell numbers were then counted. […] A certain number of B16 tumor cells (50 k; Adar null or control) were stimulated with cytokine in vitro, washed to remove cytokine (for IFNβ), and evaluated via IFNβ ELISA. […] A certain number of B16 tumor cells (50 k; Adar null or control) were stimulated in vitro with cytokine for 72 hours and stained for Class I MHC and PD-L1.
Tumor cells were engineered as noted above and plated in DMEM+10% FBS containing the indicated combinations of cytokines: IFN (1,000 U/ml, PBL), IFN (100 ng/ml, Cell Signaling Technologies), TNF (10 ng/ml, PreproTech). For rescue/re-expression experiments, 10,000 cells were plated in 96-well plates and viable cells were enumerated after 72 hours using Cell Titer-Glo® (Promega, G7570). For all other growth inhibition assays, 50,000 cells were plated in 12-well plates and viable cells were counted after 72 hours using the Countess automated cell counting system (Thermo Fisher Scientific, C10227).

Setting [7] is: animals bearing Adar1 null B16 tumors.

“Also recorded” adds a separate entry of the source.

For the compound `Nc1ccnc2c1ncn2[C@@H]1O[C@H](CO)[C@@H](O)[C@H]1O` [1-deazaadenosine], the “inhibition of ADA2” value in assay [1] is “can inhibit both ADA1 and ADA2”.
Turning to `c1ccc2c(c1)[I+]c1ccccc1-2` [DPI, diphenylene iodonium], the “ISG expression / interferon signaling” value in assay [2] is recorded as “partially decreased ISG expression”; in assay [2] (listed as diphenylene iodonium (DPI)), “partially alleviates interferon signaling”.
For the compound `Cl.O=C(NCCCNc1nc(Nc2cccc(CN3CCOCC3)c2)ncc1C1CC1)C1CCC1` [MRT67307, MRT67307 hydrocloride], in assay [2] (TBK1 inhibitor treatment), the ISG expression entry is “reduced”.
Turning to `COc1cccc2c1C(=O)c1c(O)c3c(c(O)c1C2=O)C[C@@](O)(C(=O)CO)C[C@@H]3O[C@H]1C[C@H](N)[C@H](O)[C@H](C)O1` [doxorubicin], the “sensitization to ADAR1 knockout” value in assay [3] is given as “failed to sensitize A549 cells to ADAR1 knockout”.
As for `CC(C)Cn1cnc2c(N)nc3ccccc3c21` [imiquimod], in assay [4] (setting [7]), the survival result is given as “enhanced survival” and the tumor growth entry is given as “significantly slowed tumor growth”. In assay [4] (animals bearing control B16 tumors), the survival entry is “nor topical therapy with imiquimod, a TLR7 agonist, increased the survival”.
With `C[C@@H]1O[C@@H](O[C@H]2[C@H](Oc3cc(O)c4c(c3)O[C@H](c3ccc(O)cc3)CC4=O)O[C@H](CO)[C@@H](O)[C@@H]2O)[C@H](O)[C@H](O)[C@H]1O` [naringin], the “inhibition of ADA1” value in assay [5] is listed as “potent ADA1 inhibitor”.
Regarding `OC[C@H]1O[C@@H](n2cnc3c2NC=NC[C@H]3O)C[C@@H]1O` [pentostatin], the “inhibition of ADA2” value in assay [1] is “can inhibit both ADA1 and ADA2”.
For IFNγ, the cytokine-induced growth arrest result in assay [6] is “increases IFNβ and IFNγ-induced growth arrest; also recorded: increases susceptibility to IFNβ and IFNγ”.
As for “Type II interferon: recombinant human IFN-gamma protein (R&D Systems)”, in assay [3], the “sensitization to ADAR1 knockout” value is on record as “did not sensitize A549 cells to ADAR1 knockout”.
With “erythro-9-(2-hydroxy-3-nonyl)adenine [EHNA]”, the “inhibition of ADA1” value in assay [5] is listed as “specifically inhibits ADA1”.
